The text below walks through data of the supplement of paper PMC10307832.

Common to all, as to test: relative viability (nuclei count vs DMSO), 5 days (fraction); higher = more cells survive
Compound in experiment [1]: CCn1c(-c2nonc2N)nc2c(C#CC(C)(C)O)ncc(OC[C@H]3CCCNC3)c21 + Cc1cc(Nc2cc(N3CCN(C)CC3)nc(Sc3ccc(NC(=O)C4CC4)cc3)n2)n[nH]1 [Tozasertib] (partner 0.1 µM)
In outline:
(§1)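 Lung cancer cell lines in 1536-well plates got either a single drug or a fixed anchor-drug dose together with five library-drug doses (not always all listed) in √10 steps, by pin tool, on the day after seeding. Nuclei were counted after 5 days, and relative viability is the treated-to-vehicle ratio of nuclei counts. Values are medians of duplicate plates.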

Compound in experiment [2]: CCn1c(-c2nonc2N)nc2c(C#CC(C)(C)O)ncc(OC[C@H]3CCCNC3)c21 + O=C(c1cc(Cc2n[nH]c(=O)c3ccccc23)ccc1F)N1CCN(C(=O)C2CC2)CC1 [Olaparib] (partner 8 µM)
The essentials:
as §1

Compound in the experiment “BAM7 + Pictilisib”: CCOC1=CC=CC=C1N=NC2=C(NN(C2=O)C3=NC(=CS3)C4=CC=CC=C4)C [BAM7] + CS(=O)(=O)N1CCN(Cc2cc3nc(-c4cccc5[nH]ncc45)nc(N4CCOCC4)c3s2)CC1 [Pictilisib] (partner 1 µM)
In outline: as §1

Compound in the experiment “BAM7 + Foretinib”: CCOC1=CC=CC=C1N=NC2=C(NN(C2=O)C3=NC(=CS3)C4=CC=CC=C4)C [BAM7] + COc1cc2c(Oc3ccc(NC(=O)C4(C(=O)Nc5ccc(F)cc5)CC4)cc3F)ccnc2cc1OCCCN1CCOCC1 [Foretinib] (partner 0.25 µM)
The essentials:
as §1

On to NCI-H1734, for which the relative viability in experiment [1] (first compound 0.01 µM) is 0.262; in experiment [1] (first compound 0.03162 µM), 0.258; in experiment [1] (first compound 0.1 µM), 0.285; in experiment [1] (first compound 0.3162 µM) it was 0.26; in experiment [1] (first compound 1 µM), 0.268; in experiment [2] (first compound 0.01 µM) it was 0.625. The relative viability in experiment [2] (first compound 0.03162 µM) came to 0.573; in experiment [2] (first compound 0.1 µM) it was 0.575; in experiment [2] (first compound 0.3162 µM), 0.555; in experiment [2] (first compound 1 µM), 0.618; with BAM7 + Pictilisib (first compound 0.5 µM) it was 0.477; in the experiment with BAM7 + Pictilisib (first compound 5 µM), 0.496. Also, the relative viability with BAM7 + Pictilisib (first compound 15.81 µM) came out at 0.451; in the experiment with BAM7 + Pictilisib (first compound 50 µM), 0.482; with BAM7 + Foretinib (first compound 0.5 µM), 0.849; with BAM7 + Foretinib (first compound 5 µM), 1; with BAM7 + Foretinib (first compound 15.81 µM), 0.779; in the experiment with BAM7 + Foretinib (first compound 50 µM) it was 0.825.
As to HOP-62, the relative viability in experiment [1] (first compound 0.01 µM) worked out at 0.369; in experiment [1] (first compound 0.03162 µM) it was 0.316; in experiment [1] (first compound 0.1 µM), 0.308; in experiment [1] (first compound 0.3162 µM), 0.406; in experiment [1] (first compound 1 µM) it was 0.404; in experiment [2] (first compound 0.01 µM), 0.396. Moreover, the relative viability is 0.419 in experiment [2] (first compound 0.03162 µM); 0.445 in experiment [2] (first compound 0.1 µM); 0.521 in experiment [2] (first compound 0.3162 µM); 0.603 in experiment [2] (first compound 1 µM); 0.664 with BAM7 + Pictilisib (first compound 0.5 µM); 0.729 with BAM7 + Pictilisib (first compound 5 µM). In addition, the relative viability in the experiment with BAM7 + Pictilisib (first compound 15.81 µM) stood at 0.742; with BAM7 + Pictilisib (first compound 50 µM), 0.799; in the experiment with BAM7 + Foretinib (first compound 0.5 µM), 1.25; with BAM7 + Foretinib (first compound 5 µM), 1.2; with BAM7 + Foretinib (first compound 15.81 µM) it was 1.05; with BAM7 + Foretinib (first compound 50 µM), 1.09.
In the case of LOU-NH91, the relative viability in experiment [1] (first compound 0.01 µM) was determined as 0.702; in experiment [1] (first compound 0.03162 µM) it was 0.763; in experiment [1] (first compound 0.1 µM), 0.634; in experiment [1] (first compound 0.3162 µM), 0.665; in experiment [1] (first compound 1 µM), 0.732; in experiment [2] (first compound 0.01 µM), 0.936. Further, the relative viability in experiment [2] (first compound 0.03162 µM) is 0.914; in experiment [2] (first compound 0.1 µM), 0.936; in experiment [2] (first compound 0.3162 µM), 0.797; in experiment [2] (first compound 1 µM) it was 0.856; with BAM7 + Pictilisib (first compound 0.5 µM), 0.54; with BAM7 + Pictilisib (first compound 5 µM), 0.555. Also, the relative viability in the experiment with BAM7 + Pictilisib (first compound 15.81 µM) turned out to be 0.524; with BAM7 + Pictilisib (first compound 50 µM) it was 0.532; with BAM7 + Foretinib (first compound 0.5 µM) it was 0.913; with BAM7 + Foretinib (first compound 5 µM), 1.03; with BAM7 + Foretinib (first compound 15.81 µM), 0.904; in the experiment with BAM7 + Foretinib (first compound 50 µM), 0.936.
Consider ChaGo-K-1, for which the relative viability in experiment [1] (first compound 0.01 µM) worked out at 0.216; in experiment [1] (first compound 0.03162 µM) it was 0.245; in experiment [1] (first compound 0.1 µM) it was 0.228; in experiment [1] (first compound 0.3162 µM) it was 0.248; in experiment [1] (first compound 1 µM) it was 0.248; in experiment [2] (first compound 0.01 µM), 0.397. The relative viability in experiment [2] (first compound 0.03162 µM) came out at 0.443; in experiment [2] (first compound 0.1 µM), 0.408; in experiment [2] (first compound 0.3162 µM) it was 0.408; in experiment [2] (first compound 1 µM), 0.398; with BAM7 + Pictilisib (first compound 0.5 µM), 0.647; in the experiment with BAM7 + Pictilisib (first compound 5 µM) it was 0.878. Moreover, the relative viability came to 0.789 with BAM7 + Pictilisib (first compound 15.81 µM); 0.929 with BAM7 + Pictilisib (first compound 50 µM); 0.806 in the experiment with BAM7 + Foretinib (first compound 0.5 µM); 0.928 with BAM7 + Foretinib (first compound 5 µM); 0.724 in the experiment with BAM7 + Foretinib (first compound 15.81 µM); 0.983 with BAM7 + Foretinib (first compound 50 µM).
On to NCI-H2228, for which the relative viability in experiment [1] (first compound 0.01 µM) amounted to 0.222; in experiment [1] (first compound 0.03162 µM) it was 0.278; in experiment [1] (first compound 0.1 µM), 0.229; in experiment [1] (first compound 0.3162 µM), 0.246; in experiment [1] (first compound 1 µM), 0.252; in experiment [2] (first compound 0.01 µM), 0.701. The relative viability in experiment [2] (first compound 0.03162 µM) is 0.895; in experiment [2] (first compound 0.1 µM), 0.847; in experiment [2] (first compound 0.3162 µM) it was 0.541; in experiment [2] (first compound 1 µM), 0.55; with BAM7 + Pictilisib (first compound 0.5 µM), 0.407; in the experiment with BAM7 + Pictilisib (first compound 5 µM), 0.429. Further, the relative viability with BAM7 + Pictilisib (first compound 15.81 µM) was 0.34; with BAM7 + Pictilisib (first compound 50 µM), 0.429; with BAM7 + Foretinib (first compound 0.5 µM), 1.04; with BAM7 + Foretinib (first compound 5 µM) it was 0.964; in the experiment with BAM7 + Foretinib (first compound 15.81 µM), 0.879; with BAM7 + Foretinib (first compound 50 µM) it was 1.16.
With PC-14, the relative viability amounted to 0.587 in experiment [1] (first compound 0.01 µM); 0.63 in experiment [1] (first compound 0.03162 µM); 0.687 in experiment [1] (first compound 0.1 µM); 0.533 in experiment [1] (first compound 0.3162 µM); 0.716 in experiment [1] (first compound 1 µM); 0.309 in experiment [2] (first compound 0.01 µM). Moreover, the relative viability is 0.244 in experiment [2] (first compound 0.03162 µM); 0.34 in experiment [2] (first compound 0.1 µM); 0.378 in experiment [2] (first compound 0.3162 µM); 0.412 in experiment [2] (first compound 1 µM); 0.775 in the experiment with BAM7 + Pictilisib (first compound 0.5 µM); 1.02 with BAM7 + Pictilisib (first compound 5 µM). Also, the relative viability with BAM7 + Pictilisib (first compound 15.81 µM) was determined as 0.598; with BAM7 + Pictilisib (first compound 50 µM) it was 0.656; with BAM7 + Foretinib (first compound 0.5 µM), 0.981; in the experiment with BAM7 + Foretinib (first compound 5 µM), 1.03; in the experiment with BAM7 + Foretinib (first compound 15.81 µM), 0.888; in the experiment with BAM7 + Foretinib (first compound 50 µM), 1.01.
For the cell line NCI-H1437, the relative viability came to 0.38 in experiment [1] (first compound 0.01 µM); 0.461 in experiment [1] (first compound 0.03162 µM); 0.422 in experiment [1] (first compound 0.1 µM); 0.39 in experiment [1] (first compound 0.3162 µM); 0.432 in experiment [1] (first compound 1 µM); 0.633 in experiment [2] (first compound 0.01 µM). The relative viability in experiment [2] (first compound 0.03162 µM) stood at 0.648; in experiment [2] (first compound 0.1 µM), 0.64; in experiment [2] (first compound 0.3162 µM), 0.605; in experiment [2] (first compound 1 µM), 0.625; in the experiment with BAM7 + Pictilisib (first compound 0.5 µM), 0.722; in the experiment with BAM7 + Pictilisib (first compound 5 µM), 0.434. Besides, the relative viability with BAM7 + Pictilisib (first compound 15.81 µM) worked out at 0.318; in the experiment with BAM7 + Pictilisib (first compound 50 µM) it was 0.63; in the experiment with BAM7 + Foretinib (first compound 0.5 µM), 1.31; with BAM7 + Foretinib (first compound 5 µM) it was 1.2; in the experiment with BAM7 + Foretinib (first compound 15.81 µM), 1.21; in the experiment with BAM7 + Foretinib (first compound 50 µM), 1.2.
